{
  "source": "paper PMC3551614",
  "about": "(Journal of the American Chemical Society, 2012)",
  "molecular_target": "T1, VEGF (Homo sapiens, UniProt P15692)",
  "T1 sequence (P15692 1-191 isoform P15692-4)": "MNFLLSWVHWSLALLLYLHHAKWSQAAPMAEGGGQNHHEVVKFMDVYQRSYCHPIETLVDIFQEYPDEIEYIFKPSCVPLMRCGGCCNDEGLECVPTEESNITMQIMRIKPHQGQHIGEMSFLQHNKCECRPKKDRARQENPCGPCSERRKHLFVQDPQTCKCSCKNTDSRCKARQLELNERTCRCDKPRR",
  "experiment": "direct FP binding of N-terminal fluorescein derivatives",
  "settings": "domain 2 of VEGFR1 as competitor",
  "note": "Numbered stars: 1 amine (or outer) side, 2 acyl side, 3 side chain; on linkers, the order of the positions; unused ones are H or OH. Bridge positions count the residues as written; N and C are the ends. Square brackets hold non-standard residues; d marks the D form. Peptide text beside a SMILES is read from it. * marks the point of attachment. 5FAM = O=C1OC2(c3ccc(O)cc3Oc3cc(O)ccc32)c2ccc(C(=O)*)cc21; X1 = O=C([C@H]1CNC[C@@H]1N[*:1])[*:2]; β3hE = N[C@@H](CCC(=O)O)CC(=O)O; β3hN = NC(=O)C[C@H](N)CC(=O)O; β3hL = CC(C)C[C@H](N)CC(=O)O; Nle = CCCC[C@H](N)C(=O)O",
  "data": [
    {"smiles": "CCCC[C@@H]1NC(=O)[C@H](C(C)C)NC(=O)[C@H](Cc2c[nH]cn2)NC(=O)[C@H]([C@@H](C)CC)NC(=O)[C@H](CC(=O)O)NC(=O)[C@@H](NC(=O)C[C@H](CC(N)=O)NC(=O)[C@@H]2CCCN2C(=O)C[C@H](CCC(=O)O)NC(=O)[C@@H](NC(=O)c2ccc3c(c2)C(=O)OC32c3ccc(O)cc3Oc3cc(O)ccc32)C(C)C)CSSC[C@@H](C(=O)N[C@@H](Cc2ccccc2)C(=O)N[C@H]2CNC[C@@H]2C(=O)N[C@@H](CCCNC(=N)N)C(=O)N[C@H](CC(N)=O)CC(C)C)NC(=O)[C@H](CCC(=O)O)NC(=O)[C@H](Cc2c[nH]c3ccccc23)NC(=O)C[C@H](CCC(=O)O)NC(=O)[C@H](Cc2c[nH]c3ccccc23)NC1=O", "note": "[Flu-3] (5FAM-V[β3hE]P[β3hN]CDIHV[Nle]W[β3hE]WECF[X1]R[β3hL]-NH2; disulfide 5-15; N-terminus and C-terminus assumed)", "values": [
      {"measurement": "displacement from VEGF by domain 2 of VEGFR1", "result": "displaces"}
    ]}
  ]
}
